Measured values reported in PubChem BioAssay (NCI).
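Protocol summary: plate cells (96-well), add compound at 5 concentrations, incubate 48 h, interpolate endpoints linearly. GI50: concentration for 50% inhibition of growth. TGI: total growth inhibition.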

Key:
Assay in all cases: inhibition of tumour cell growth, NCI panel, 48 h
SNB-75 CNS = system: SNB-75 CNS
HOP-92 NSCLC = system: HOP-92 NSCLC
K-562 leukemia = system: K-562 leukemia
UACC-62 melanoma = system: UACC-62 melanoma
SF-295 CNS = system: SF-295 CNS
HCT-116 colon = system: HCT-116 colon
HL-60(TB) leukemia = system: HL-60(TB) leukemia
CCRF-CEM leukemia = system: CCRF-CEM leukemia
MCF7 breast = system: MCF7 breast
HCC-2998 colon = system: HCC-2998 colon
BT-549 breast = system: BT-549 breast
LOX IMVI melanoma = system: LOX IMVI melanoma
PC-3 prostate = system: PC-3 prostate
MOLT-4 leukemia = system: MOLT-4 leukemia
TK-10 renal = system: TK-10 renal
NCI-H522 lung = system: NCI-H522 lung
RPMI-8226 leukemia = system: RPMI-8226 leukemia
IGROV1 ovarian = system: IGROV1 ovarian
DU-145 prostate = system: DU-145 prostate
SW-620 colon = system: SW-620 colon
SK-OV-3 ovarian = system: SK-OV-3 ovarian
COLO 205 colon = system: COLO 205 colon
OVCAR-5 ovarian = system: OVCAR-5 ovarian
UACC-257 melanoma = system: UACC-257 melanoma
SK-MEL-28 melanoma = system: SK-MEL-28 melanoma
RXF 393 renal = system: RXF 393 renal
KM12 colon = system: KM12 colon
HOP-62 NSCLC = system: HOP-62 NSCLC
A549 NSCLC = system: A549 NSCLC
U251 CNS = system: U251 CNS
MDA-MB-435 = system: MDA-MB-435
SN12C renal = system: SN12C renal
MALME-3M melanoma = system: MALME-3M melanoma
786-0 renal = system: 786-0 renal
HS 578T breast = system: HS 578T breast
NCI-H460 lung = system: NCI-H460 lung
SNB-19 CNS = system: SNB-19 CNS
NCI-H23 lung = system: NCI-H23 lung
SK-MEL-5 melanoma = system: SK-MEL-5 melanoma
A498 renal = system: A498 renal
T-47D breast = system: T-47D breast
EKVX NSCLC = system: EKVX NSCLC
CAKI-1 renal = system: CAKI-1 renal
OVCAR-8 ovarian = system: OVCAR-8 ovarian
NCI/ADR-RES ovarian = system: NCI/ADR-RES ovarian
SF-539 CNS = system: SF-539 CNS
HCT-15 colon = system: HCT-15 colon
M14 melanoma = system: M14 melanoma
OVCAR-4 ovarian = system: OVCAR-4 ovarian
NCI-H226 lung = system: NCI-H226 lung
SR leukemia = system: SR leukemia
ACHN renal = system: ACHN renal
HT29 colon = system: HT29 colon
SK-MEL-2 melanoma = system: SK-MEL-2 melanoma
SF-268 CNS = system: SF-268 CNS
MDA-MB-231 breast = system: MDA-MB-231 breast
UO-31 renal = system: UO-31 renal

`Oc1ccc(CSc2nnc(-c3ccccc3)n2-c2ccccc2)c2cccnc12` was tested, and the GI50 (SNB-75 CNS) was 673 nM, the TGI (SNB-75 CNS) was 5150 nM and the GI50 (HOP-92 NSCLC) was 227 nM. It also gave a TGI (HOP-92 NSCLC) of 787 nM, a GI50 (K-562 leukemia) of 403 nM and a TGI (K-562 leukemia) of over 39700 nM. The GI50 (UACC-62 melanoma) was 713 nM, the TGI (UACC-62 melanoma) was 3630 nM and the GI50 (SF-295 CNS) was 406 nM. The TGI (SF-295 CNS) was 4280 nM, the GI50 (HCT-116 colon) was 362 nM and the TGI (HCT-116 colon) was 4870 nM. It also gave a GI50 (HL-60(TB) leukemia) of 376 nM, a TGI (HL-60(TB) leukemia) of 6910 nM and a GI50 (CCRF-CEM leukemia) of 396 nM. It also gave a TGI (CCRF-CEM leukemia) of over 43400 nM, a GI50 (MCF7 breast) of 348 nM and a TGI (MCF7 breast) of over 70200 nM. For the same compound, the GI50 (HCC-2998 colon) was 728 nM, the TGI (HCC-2998 colon) was over 100000 nM and the GI50 (BT-549 breast) was 590 nM. It also gave a TGI (BT-549 breast) of over 26000 nM, a GI50 (LOX IMVI melanoma) of 485 nM and a TGI (LOX IMVI melanoma) of 2820 nM. It also gave a GI50 (PC-3 prostate) of 440 nM, a TGI (PC-3 prostate) of over 47700 nM and a GI50 (MOLT-4 leukemia) of 480 nM. The TGI (MOLT-4 leukemia) was over 100000 nM, the GI50 (TK-10 renal) was 514 nM and the TGI (TK-10 renal) was 4670 nM. It also gave a GI50 (NCI-H522 lung) of 402 nM, a TGI (NCI-H522 lung) of 7190 nM and a GI50 (RPMI-8226 leukemia) of 448 nM. For the same compound, the TGI (RPMI-8226 leukemia) was over 100000 nM, the GI50 (IGROV1 ovarian) was 557 nM and the TGI (IGROV1 ovarian) was 13000 nM. For the same compound, the GI50 (DU-145 prostate) was 605 nM, the TGI (DU-145 prostate) was 22200 nM and the GI50 (SW-620 colon) was 443 nM. For the same compound, the TGI (SW-620 colon) was over 100000 nM, the GI50 (SK-OV-3 ovarian) was 481 nM and the TGI (SK-OV-3 ovarian) was 6810 nM. The GI50 (COLO 205 colon) was 4790 nM, the TGI (COLO 205 colon) was over 100000 nM and the GI50 (OVCAR-5 ovarian) was 2880 nM. For the same compound, the TGI (OVCAR-5 ovarian) was over 100000 nM, the GI50 (UACC-257 melanoma) was 811 nM and the TGI (UACC-257 melanoma) was 6650 nM. For the same compound, the GI50 (SK-MEL-28 melanoma) was 614 nM, the TGI (SK-MEL-28 melanoma) was 55200 nM and the GI50 (RXF 393 renal) was 887 nM. For the same compound, the TGI (RXF 393 renal) was 6120 nM, the GI50 (KM12 colon) was 534 nM and the TGI (KM12 colon) was over 100000 nM. It also gave a GI50 (HOP-62 NSCLC) of 449 nM, a TGI (HOP-62 NSCLC) of 7910 nM and a GI50 (A549 NSCLC) of 644 nM. The TGI (A549 NSCLC) was over 33300 nM, the GI50 (U251 CNS) was 298 nM and the TGI (U251 CNS) was 9460 nM. It also gave a GI50 (MDA-MB-435) of 439 nM, a TGI (MDA-MB-435) of over 100000 nM and a GI50 (SN12C renal) of 416 nM. For the same compound, the TGI (SN12C renal) was 25400 nM, the GI50 (MALME-3M melanoma) was 1150 nM and the TGI (MALME-3M melanoma) was 6190 nM. For the same compound, the GI50 (786-0 renal) was 923 nM, the TGI (786-0 renal) was 5090 nM and the GI50 (HS 578T breast) was 433 nM. The TGI (HS 578T breast) was 12100 nM, the GI50 (NCI-H460 lung) was 351 nM and the TGI (NCI-H460 lung) was 3470 nM. The GI50 (SNB-19 CNS) was 395 nM, the TGI (SNB-19 CNS) was 14200 nM and the GI50 (NCI-H23 lung) was 541 nM. The TGI (NCI-H23 lung) was 11000 nM, the GI50 (SK-MEL-5 melanoma) was 522 nM and the TGI (SK-MEL-5 melanoma) was 3220 nM. For the same compound, the GI50 (A498 renal) was 1520 nM, the TGI (A498 renal) was 11700 nM and the GI50 (T-47D breast) was 625 nM. For the same compound, the TGI (T-47D breast) was 4320 nM, the GI50 (EKVX NSCLC) was 771 nM and the TGI (EKVX NSCLC) was 6400 nM. For the same compound, the GI50 (CAKI-1 renal) was 559 nM, the TGI (CAKI-1 renal) was 3440 nM and the GI50 (OVCAR-8 ovarian) was 377 nM. For the same compound, the TGI (OVCAR-8 ovarian) was over 22800 nM, the GI50 (NCI/ADR-RES ovarian) was 285 nM and the TGI (NCI/ADR-RES ovarian) was 2340 nM. The GI50 (SF-539 CNS) was 427 nM, the TGI (SF-539 CNS) was 3270 nM and the GI50 (HCT-15 colon) was 348 nM. It also gave a TGI (HCT-15 colon) of over 100000 nM, a GI50 (M14 melanoma) of 405 nM and a TGI (M14 melanoma) of 2440 nM. It also gave a GI50 (OVCAR-4 ovarian) of 706 nM, a TGI (OVCAR-4 ovarian) of 13000 nM and a GI50 (NCI-H226 lung) of 1900 nM. For the same compound, the TGI (NCI-H226 lung) was over 79200 nM, the GI50 (SR leukemia) was 404 nM and the TGI (SR leukemia) was over 100000 nM. The GI50 (ACHN renal) was 364 nM, the TGI (ACHN renal) was 1290 nM and the GI50 (HT29 colon) was 3960 nM. The TGI (HT29 colon) was over 100000 nM, the GI50 (SK-MEL-2 melanoma) was 621 nM and the TGI (SK-MEL-2 melanoma) was 6090 nM. The GI50 (SF-268 CNS) was 519 nM, the TGI (SF-268 CNS) was 21100 nM and the GI50 (MDA-MB-231 breast) was 620 nM. For the same compound, the TGI (MDA-MB-231 breast) was 11400 nM, the GI50 (UO-31 renal) was 315 nM and the TGI (UO-31 renal) was 1560 nM.
